According to US20230149561A1, “Functionalized Nanoparticles and Their Use in Treating Bacterial Infections” (The Board of Trustees of the Leland Stanford Junior …, priority 2019, published 2023):
≈ marks a conversion by molar mass, not a printed value.

Tests used:
[1] = test system: Klebsiella pneumoniae CDC 0044; assay: MIC and MBC against Meropenem-resistant Klebsiella; assay type: cell-based; conditions: Meropenem-resistant strain, before combination
[2] = test system: PA CSOM surviving persister cells, logarithmic-phase culture; assay: Ofloxacin sensitivity of resuscitated persister cells in logarithmic-phase culture; assay type: cell-based, Pseudomonas aeruginosa; conditions: ofloxacin 100 μg/mL, 24 h
Protocol: FIG. 8: Cartoon depicting the flowchart to evaluate ofloxacin sensitivity to persister cells resuscitation in logarithmic-phase culture. (1) Surviving persister cells following the treatment of PA CSOM biofilm with ofloxacin at 3000 μg/mL were replaced in fresh media and incubated at 37° C. and were aerated at 225 r.p.m. (2) Cells in logarithmic-phase (OD600=0.3) were treated with either phosphate-buffered saline (PBS) or ofloxacin (100 μg/mL) for 24 h. (3) following the treatment, cells were plated to determine the number of bacteria per milliliter (CFU/mL).
The drug-refractory state associated with PA CSOM biofilm formation is mediated by tolerance rather than resistance to the antibiotic.

[3] = test system: PA CSOM logarithmic culture; assay: Persistence assay, PA CSOM; assay type: cell-based, Pseudomonas aeruginosa; conditions: ofloxacin 100 μg/mL, 24 h
Protocol: (§1) FIGS. 2A-2B: Increasing the fraction of persister cells promotes biofilm tolerance to ofloxacin. FIG. 2A) Susceptibility of surviving persister cells in logarithmic-phase culture. […] Data are presented as mean±s.d. (n=3). FIG. 2B) Comparison of persister cell fraction between PAO1 and PA CSOM in logarithmic-phase culture. Cells of logarithmic-phase were treated with ofloxacin ([…]) for 24 h and then plated for colony counting. The persister fraction was calculated as the ratio between the number of surviving bacteria after ofloxacin treatment compared to that measured in the corresponding untreated control (PBS). Data are presented as mean±s.d. (n=3). Statistical comparisons were done using a two-tailed t-test as indicated. ****p≤0.0001 and **p≤0.01.
(§2) PA01 and PA CSOM cultures were incubated at 37° C. with shaking. 1 mL of culture from each strain was aliquoted when reaching an OD600 of 0.3. Cultures were gently rinsed to remove LB medium and replaced with 1 mL of PBS. Ofloxacin (100 μg/mL) was added to the culture flasks (except for the control flasks). After 24 h incubation, ofloxacin was removed and the number of colony-forming units per milliliter (CFU/mL) was determined. […] The fraction of persister cells was calculated as the ratio of the CFU/mL after ofloxacin treatment to the CFU/mL of the control flasks.

PA01 = assay: Minimum inhibitory concentration against PA01; assay type: cell-based; conditions: Pseudomonas aeruginosa
PA CSOM = assay: Minimum inhibitory concentration against PA CSOM; assay type: cell-based; conditions: Pseudomonas aeruginosa
PA01 logarithmic culture = assay: Persistence assay, PA01; assay type: cell-based, Pseudomonas aeruginosa; conditions: ofloxacin 100 μg/mL, 24 h
Protocol: as §1, §2

[4] = test system: P. aeruginosa wild-type PA01 biofilm; assay: MBEC Assay biofilm eradication, 48 h old PA01 biofilm; assay type: cell-based, Pseudomonas aeruginosa; conditions: 24 h treatment
Protocol: (§3) (1-2) Bacteria culture is prepared and dispensed into a 96-well microplate. (3) The peg lid is placed in the bacteria culture and incubated to generate the biofilm. (4) The peg lid is gently rinsed to removed planktonic bacteria and a serial diluted test solution is dispensed into a new 96-well microplate. (5) The pegs covered in biofilm are incubated in the test solutions. (6) The peg lid is again gently rinsed to remove planktonic bacteria and placed in a new 96-well microplate containing recovery media. The peg lid is then sonicated to dislodge the biofilm into the recovery media. (7) Following sonication, the peg lid is replaced with a regular 96-well microplate lid and the plate containing recovery media is incubated. Following incubation, the OD650 absorbance is read on a spectrophotometer. Wells with an OD650 of less than 0.1 is evidence of biofilm eradication. (8) Spot plated on LB agar plates is use to confirm biofilm eradication.
(§4) Then, the minimum biofilm eradication concentration (MBEC) of FLOXIN®Otic against 48 h old PA01 and PA CSOM biofilms were determined using the commercially available MBEC Assay® (Innovotech Inc. Edmonton, Canada). […] Although PA CSOM produced quantitatively less biofilms than PAO1, it had the highest tolerance to ofloxacin. […]

[5] = test system: stationary phase planktonic PA; assay: Killing of stationary phase planktonic PA; assay type: cell-based, Pseudomonas aeruginosa; conditions: 24 hr treatment, AuNC@CPP (16000 μg/mL), OFL (750 μg/mL)
[6] = test system: PA01 (chromosomally encoded luminescent) biofilm; assay type: cell-based, Pseudomonas aeruginosa; conditions: 10-day-old PA01 biofilm, 24 hr treatment
Protocol: Biofilms of PA01 (10-day-old) were grown in the commercially available Calgary Biofilm Device (a 96-well plate)/minimum biofilm eradication concentration (MBEC) assay plate (46). […] Wells were washed with PBS and biofilms were disrupted with sonication and incubated in recovery media for turbidity measurements. A well was considered to have biofilm eradicated if the optical density at 650 nm (OD650) was less than 0.1 after 24 hours.

[7] = test system: P. aeruginosa clinical otopathogenic strain (PA CSOM) biofilm; assay: MBEC Assay biofilm eradication, 48 h old PA CSOM biofilm; assay type: cell-based, Pseudomonas aeruginosa; conditions: 24 h treatment
Protocol: as §3, §4

biofilm = assay: Biofilm eradication by cell-penetrating peptide alone; assay type: cell-based; conditions: CPP alone, spot plated on LB agar
Excerpt: FIG. 20: Cell-penetrating peptide alone cannot eradicate the biofilm; the entire entity of AuNCs was required for biofilm eradication. […] Each spot represents an independent experiment (n=3).

Compound: C[C@@H](O)[C@H]1C(=O)N2C(C(=O)O)=C(S[C@@H]3CN[C@H](C(=O)N(C)C)C3)[C@H](C)[C@H]12 [Meropenem]
- MBC [1]: > 200 µg/mL

Compound: CC1COc2c(N3CCN(C)CC3)c(F)cc3c(=O)c(C(=O)O)cn1c23 (centres unmarked) [ofloxacin]
- decrease in number of bacteria per milliliter (CFU/mL) [2]: 3 log 10
- fraction of persister cells [3]: 0.07%
- MIC (PA01): 1.6 to 3.3 µg/mL (≈ 4.43 to 9.13 µM)
- MIC (PA CSOM): 52.5 to 100 µg/mL (≈ 145 to 277 µM)
- fraction of persister cells of total bacteria population (PA01 logarithmic culture): 0.0005%
- minimum biofilm eradication concentration (MBEC) [4]: 750 µg/mL
- remaining CFU [5]: 10^3
- MBEC [6]: 750 µg/mL
- minimum biofilm eradication concentration (MBEC) [7]: > 3000 µg/mL

Compound: Ac-(YGRKKRRQRRR SEQ ID NO:7)-(β-Ala)-(β-Ala)-(β-Ala)-Cys-CONH2 (N-acetyl, three beta-Ala, Cys amide; TAT cell-penetrating peptide) [CPP, cell-penetrating peptide alone, component of AuNC@CPP]
- concentration without any biofilm eradication (biofilm): > 4000 µg/mL
